Key:
Aegilops cylindrica = experiment: Test 1 greenhouse, preemergence; type: in vivo; conditions: 21 days, scale 0-100
Experimental: (§1) Seeds of Bromus tectorum, Kochia scoparia, Salsoa kali, Avena fatua, Convolvulus arvensis, Secale cereale, Setaria viridis and Triticum aestivum were placed in 26-cm plastic pans containing a pasteurized sandy loam soil (pH 6.5, 1% organic matter). Plantings were maintained in the greenhouse for 18-28 days at which time the postemergence treatments were applied using a nonphytotoxic solvent as the carrier for the herbicide. The preemergence segment of the test was seeded immediately before herbicide application using Bromus tectorum, Kochia scoparia, Polygonum convolvulus, Salsoa kali, Avena fatua, Convolvulus arvensis, Secale cereale, Setaria viridis, Aegilops cylindrica, Amaranthus retroflexus, Chenopodium album, Hordeum vulgare, Triticum aestivum, Sorghum bicolor, and Zea mays. All treatments were maintained in the greenhouse for an additional 21 days at which time visual assessment of weed control was determined using a scale of 0 to 100 for each species where 0 represented no control and 100 represented complete control.

Amaranthus retroflexus = experiment: Test 1 greenhouse, preemergence; type: in vivo; conditions: 21 days, scale 0-100
Experimental: as §1

Avena fatua = experiment: Test 1 greenhouse, preemergence; type: in vivo; conditions: 21 days, scale 0-100
Experimental: as §1

Bromus tectorum = experiment: Test 1 greenhouse, preemergence; type: in vivo; conditions: 21 days, scale 0-100
Experimental: as §1

Chenopodium album = experiment: Test 1 greenhouse, preemergence; type: in vivo; conditions: 21 days, scale 0-100
Experimental: as §1

Convolvulus arvensis = experiment: Test 1 greenhouse, preemergence; type: in vivo; conditions: 21 days, scale 0-100
Experimental: as §1

Hordeum vulgare = experiment: Test 1 greenhouse, preemergence; type: in vivo; conditions: 21 days, scale 0-100
Experimental: as §1

Kochia scoparia = experiment: Test 1 greenhouse, preemergence; type: in vivo; conditions: 21 days, scale 0-100
Experimental: as §1

Polygonum convolvulus = experiment: Test 1 greenhouse, preemergence; type: in vivo; conditions: 21 days, scale 0-100
Experimental: as §1

Salsoa kali = experiment: Test 1 greenhouse, preemergence; type: in vivo; conditions: 21 days, scale 0-100
Experimental: as §1

Secale cereale = experiment: Test 1 greenhouse, preemergence; type: in vivo; conditions: 21 days, scale 0-100
Experimental: as §1

Setaria viridis = experiment: Test 1 greenhouse, preemergence; type: in vivo; conditions: 21 days, scale 0-100
Experimental: as §1

Sorghum bicolor = experiment: Test 1 greenhouse, preemergence; type: in vivo; conditions: 21 days, scale 0-100
Experimental: as §1

Triticum aestivum = experiment: Test 1 greenhouse, preemergence; type: in vivo; conditions: 21 days, scale 0-100
Experimental: as §1

Zea mays = experiment: Test 1 greenhouse, preemergence; type: in vivo; conditions: 21 days, scale 0-100
Experimental: as §1

Nephrolepis exalata = experiment: Test 4 plantation crop weeds, postemergence; type: in vivo; conditions: Table 4, scale 0-100
From the text: The object of this test was to evaluate the efficacy of the compound of this invention on weeds that infest some plantation crops at different growth stages of the weeds. Asystasia intrusa, Mikania cordata, goldenrod Solidago spp, Boston fern Nephrolepis exalata, and lalang Imparata cylindrica were planted in 15-cm plastic pots. Plants were sprayed postemergence with Compound I in a non-phytotoxic solvent. The Asystasia plants ranged in growth from 4 leaves to 9 leaves and very branched, Mikania had 6 leaves to vining, the goldenrod was branching and the Boston fern was growing vigorously. The degree of weed control was visually rated 20 to 24 days after treatment (DAT). Control ratings are based on the scale of 0 to 100 where 0 = no effect, 20 = minimal control and 100 = complete control. Variations in the results of the tests could be due to the fact that the tests were run at different times of the year or due to the stage of growth of the weeds.

Bahia grass = experiment: Test 9 postemergence; type: in vivo, bahiagrass; conditions: 16 g/ha, scale 0-100
Experimental: Plastic windowsill pots containing planting medium were seeded with bahiagrass, bindweed (Convolvulus spp), guinea grass (Panicum maximum), large crabgrass (Digitaria sanguinalis) and pigweed (Amaranthus spp). Individual 15-cm plastic pots contained sandbur (Cenchrus echinatus), Mikania cordata, Boston fern (Nephrolepis exalata), quackgrass (Agropyron repens), elephantgrass (Pennisetum purpureum) and sowthistle (Sonchus spp) plants.
Plants were treated postemergence with Compound I formulated in a non-phytotoxic solvent. Plants were visually rated 22 days after treatment (DAT). Injury and weed control ratings were based on the scale of 0 to 100 where 0 = no effect, 20 = minimal control and 100 = complete control.

COC(=O)c1cccnc1S(=O)(=O)NC(=O)Nc1nc(OC)cc(OC)n1 [Compound I, 2-[[(4,6-dimethoxypyrimidin-2-yl)aminocarbonyl]aminosulfonyl]-3-pyridinecarboxylic acid, methyl ester]
visual assessment of weed control (Aegilops cylindrica; 4 g/ha): 30 | visual assessment of weed control (Aegilops cylindrica; 8 g/ha): 50 | visual assessment of weed control (Aegilops cylindrica; 16 g/ha): 60 | visual assessment of weed control (Aegilops cylindrica; 32 g/ha): 80 | visual assessment of weed control (Aegilops cylindrica; 64 g/ha): 100 | visual assessment of weed control (Aegilops cylindrica; 125 g/ha): 100 | visual assessment of weed control (Amaranthus retroflexus; 4 g/ha): 70 | visual assessment of weed control (Amaranthus retroflexus; 8 g/ha): 90 | visual assessment of weed control (Amaranthus retroflexus; 16 g/ha): 90 | visual assessment of weed control (Amaranthus retroflexus; 32 g/ha): 100 | visual assessment of weed control (Amaranthus retroflexus; 64 g/ha): 100 | visual assessment of weed control (Amaranthus retroflexus; 125 g/ha): 100 | visual assessment of weed control (Avena fatua; 4 g/ha): 0 | visual assessment of weed control (Avena fatua; 8 g/ha): 40 | visual assessment of weed control (Avena fatua; 16 g/ha): 50 | visual assessment of weed control (Avena fatua; 32 g/ha): 60 | visual assessment of weed control (Avena fatua; 64 g/ha): 90 | visual assessment of weed control (Avena fatua; 125 g/ha): 100 | visual assessment of weed control (Bromus tectorum; 4 g/ha): 50 | visual assessment of weed control (Bromus tectorum; 8 g/ha): 70 | visual assessment of weed control (Bromus tectorum; 16 g/ha): 80 | visual assessment of weed control (Bromus tectorum; 32 g/ha): 90 | visual assessment of weed control (Bromus tectorum; 64 g/ha): 90 | visual assessment of weed control (Bromus tectorum; 125 g/ha): 100 | visual assessment of weed control (Chenopodium album; 4 g/ha): 60 | visual assessment of weed control (Chenopodium album; 8 g/ha): 90 | visual assessment of weed control (Chenopodium album; 16 g/ha): 90 | visual assessment of weed control (Chenopodium album; 32 g/ha): 100 | visual assessment of weed control (Chenopodium album; 64 g/ha): 100 | visual assessment of weed control (Chenopodium album; 125 g/ha): 100 | visual assessment of weed control (Convolvulus arvensis; 4 g/ha): 20 | visual assessment of weed control (Convolvulus arvensis; 8 g/ha): 40 | visual assessment of weed control (Convolvulus arvensis; 16 g/ha): 90 | visual assessment of weed control (Convolvulus arvensis; 32 g/ha): 90 | visual assessment of weed control (Convolvulus arvensis; 64 g/ha): 100 | visual assessment of weed control (Convolvulus arvensis; 125 g/ha): 100 | visual assessment of weed control (Hordeum vulgare; 4 g/ha): 50 | visual assessment of weed control (Hordeum vulgare; 8 g/ha): 60 | visual assessment of weed control (Hordeum vulgare; 16 g/ha): 70 | visual assessment of weed control (Hordeum vulgare; 32 g/ha): 80 | visual assessment of weed control (Hordeum vulgare; 64 g/ha): 80 | visual assessment of weed control (Hordeum vulgare; 125 g/ha): 90 | visual assessment of weed control (Kochia scoparia; 4 g/ha): 80 | visual assessment of weed control (Kochia scoparia; 8 g/ha): 80 | visual assessment of weed control (Kochia scoparia; 16 g/ha): 100 | visual assessment of weed control (Kochia scoparia; 32 g/ha): 100 | visual assessment of weed control (Kochia scoparia; 64 g/ha): 100 | visual assessment of weed control (Kochia scoparia; 125 g/ha): 100 | visual assessment of weed control (Polygonum convolvulus; 4 g/ha): 20 | visual assessment of weed control (Polygonum convolvulus; 8 g/ha): 20 | visual assessment of weed control (Polygonum convolvulus; 16 g/ha): 80 | visual assessment of weed control (Polygonum convolvulus; 32 g/ha): 80 | visual assessment of weed control (Polygonum convolvulus; 64 g/ha): 80 | visual assessment of weed control (Polygonum convolvulus; 125 g/ha): 100 | visual assessment of weed control (Salsoa kali; 4 g/ha): 50 | visual assessment of weed control (Salsoa kali; 8 g/ha): 70 | visual assessment of weed control (Salsoa kali; 16 g/ha): 70 | visual assessment of weed control (Salsoa kali; 32 g/ha): 80 | visual assessment of weed control (Salsoa kali; 64 g/ha): 100 | visual assessment of weed control (Salsoa kali; 125 g/ha): 100 | visual assessment of weed control (Secale cereale; 4 g/ha): 20 | visual assessment of weed control (Secale cereale; 8 g/ha): 30 | visual assessment of weed control (Secale cereale; 16 g/ha): 40 | visual assessment of weed control (Secale cereale; 32 g/ha): 70 | visual assessment of weed control (Secale cereale; 64 g/ha): 80 | visual assessment of weed control (Secale cereale; 125 g/ha): 90 | visual assessment of weed control (Setaria viridis; 4 g/ha): 20 | visual assessment of weed control (Setaria viridis; 8 g/ha): 30 | visual assessment of weed control (Setaria viridis; 16 g/ha): 50 | visual assessment of weed control (Setaria viridis; 32 g/ha): 70 | visual assessment of weed control (Setaria viridis; 64 g/ha): 90 | visual assessment of weed control (Setaria viridis; 125 g/ha): 100 | visual assessment of weed control (Sorghum bicolor; 4 g/ha): 90 | visual assessment of weed control (Sorghum bicolor; 8 g/ha): 100 | visual assessment of weed control (Sorghum bicolor; 16 g/ha): 100 | visual assessment of weed control (Sorghum bicolor; 32 g/ha): 100 | visual assessment of weed control (Sorghum bicolor; 64 g/ha): 100 | visual assessment of weed control (Sorghum bicolor; 125 g/ha): 100 | visual assessment of weed control (Triticum aestivum; 4 g/ha): 70 | visual assessment of weed control (Triticum aestivum; 8 g/ha): 100 | visual assessment of weed control (Triticum aestivum; 16 g/ha): 100 | visual assessment of weed control (Triticum aestivum; 32 g/ha): 100 | visual assessment of weed control (Triticum aestivum; 64 g/ha): 100 | visual assessment of weed control (Triticum aestivum; 125 g/ha): 100 | visual assessment of weed control (Zea mays; 4 g/ha): 40 | visual assessment of weed control (Zea mays; 8 g/ha): 50 | visual assessment of weed control (Zea mays; 16 g/ha): 90 | visual assessment of weed control (Zea mays; 32 g/ha): 90 | visual assessment of weed control (Zea mays; 64 g/ha): 90 | visual assessment of weed control (Zea mays; 125 g/ha): 100 | Control Rating 24 DAT (Nephrolepis exalata; 4 g/ha): 0 | Control Rating 24 DAT (Nephrolepis exalata; 8 g/ha): 0 | Control Rating 24 DAT (Nephrolepis exalata; 16 g/ha): 40 | Control Rating 24 DAT (Nephrolepis exalata; 32 g/ha): 60 | Control Rating 24 DAT (Nephrolepis exalata; 64 g/ha): 80 | Plant Injury Rating 22 DAT (Bahia grass): 40
